Drawing on patent publication US9999650B2, “Peptide and peptidomimetic inhibitors” (Ra Pharmaceuticals, Inc., priority 2012, dated 2018), this text covers IC50 for 8 compounds.

The structures appear in SMILES notation. Numbered stars: 1 amine (or outer) side, 2 acyl side, 3 side chain; on linkers, the order of the positions; unused ones are H or OH. Bridge positions count the residues as written; N and C are the ends. Square brackets hold non-standard residues; d marks the D form. Peptide text beside a SMILES is read from it. Ala(1H-tetrazol-5-yl) = N[C@@H](Cc1nnn[nH]1)C(=O)O; Phe(4-CH2NH2) = NCc1ccc(C[C@H](N)C(=O)O)cc1; mXylylene = c1cc(C[*:1])cc(C[*:2])c1; NMeI = CC[C@H](C)[C@H](NC)C(=O)O; Pen = CC(C)(S)[C@H](N)C(=O)O; Phg = N[C@H](C(=O)O)c1ccccc1; Tle = CC(C)(C)[C@H](N)C(=O)O; Nva = CCC[C@H](N)C(=O)O

For the experiment, the target named is T1, human plasma kallikrein (Homo sapiens, UniProt P03952).
T1 construct: purchased Enzyme Research Laboratories HPKa 1303
T1 sequence (P03952 20-390 limits assumed): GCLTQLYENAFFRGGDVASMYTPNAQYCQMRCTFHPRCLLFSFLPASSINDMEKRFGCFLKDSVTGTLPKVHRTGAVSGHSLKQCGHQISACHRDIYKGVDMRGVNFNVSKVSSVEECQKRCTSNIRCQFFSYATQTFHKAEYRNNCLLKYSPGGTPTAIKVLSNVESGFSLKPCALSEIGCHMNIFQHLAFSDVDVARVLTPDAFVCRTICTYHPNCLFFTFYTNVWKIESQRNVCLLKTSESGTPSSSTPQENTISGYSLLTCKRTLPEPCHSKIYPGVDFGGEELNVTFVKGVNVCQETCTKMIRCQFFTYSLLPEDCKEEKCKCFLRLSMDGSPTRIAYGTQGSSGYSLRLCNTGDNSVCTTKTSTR
T1 sequence (P03952 391-638 limits assumed): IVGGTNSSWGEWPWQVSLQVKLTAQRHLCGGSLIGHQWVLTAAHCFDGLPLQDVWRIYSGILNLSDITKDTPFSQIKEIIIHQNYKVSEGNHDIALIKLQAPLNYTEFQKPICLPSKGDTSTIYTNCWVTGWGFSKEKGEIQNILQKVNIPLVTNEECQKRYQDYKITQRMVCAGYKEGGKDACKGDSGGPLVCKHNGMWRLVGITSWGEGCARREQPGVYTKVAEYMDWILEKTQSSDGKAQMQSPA
The experiment in a line: Enzyme inhibition assay (fluorogenic substrate H-Pro-Phe-Arg-AMC). It is filed as biochemical. To be noted: Kallikrein inhibitory activity; 1 nM activated human kallikrein, 500 μM H-Pro-Phe-Arg-AMC, 1 hour room temperature; read-out: Avg. IC50. The method, then: Activated human plasma kallikrein (Enzyme Research Laboratories, HPKa 1303) was reacted with H-Pro-Phe-Arg-7-amido-4-methylcoumarin (H-Pro-Pre-Arg-AMC) (a fluorogenic substrate for plasma as well as pancreatic and urinary kallikreins; Bachem I-1295) and candidate inhibitory peptides to determine the IC50 of the inhibitor.
Ten 8-fold serial dilutions of peptides (10 mM DMSO stocks) were performed in DMSO and then added to TCNB (50 mM Tris-HCl pH 7.2, 150 mM NaCl, 10 mM CaCl2, 0.05% Brij-35) and sonicated. 50 μL of the peptide dilutions were added to microtitre plates (96 well, black non-binding surface, Corning, 3650) and incubated for 5 minutes at room temperature with 4 nM activated human kallikrein (final concentration after addition of fluorogenic substrate: 1 nM). The samples were then incubated for 1 hour at room temperature with 2 mM H-Pro-Phe-Arg-AMC (final concentration 500 μM). Relative Fluorescence Units (RFU) were measured at excitation/emission 360 nm/460 nm by a SpectraMax M3.
A word on the IC50: it is the midpoint of a concentration-inhibition curve. Regarding `CSCC[C@H](N)C(=O)N[C@H]1CSCc2cccc(c2)CSC[C@@H](C(=O)N[C@@H](CO)C(=O)N[C@@H](CCCNC(=N)N)C(N)=O)NC(=O)[C@H](CCC(=O)O)NC(=O)[C@H]([C@@H](C)O)NC(=O)[C@H](Cc2c[nH]c3ccccc23)NC(=O)[C@@H]2CCCN2C(=O)[C@H](CO)NC(=O)[C@H](Cc2c[nH]c3ccccc23)NC(=O)[C@H](Cc2ccc(O)cc2)NC(=O)[C@H](CC(N)=O)NC1=O` [Compound R2003, [mXylyl(2,11)]MCNYWSPWTECSR-NH2] (H-MCNYWSPWTECSR-NH2; linker 2-11 via mXylylene), the IC50 was determined as 3.1 nM.

On to `CC[C@H](C)[C@@H]1NC(=O)[C@H](CO)NC(=O)[C@H](CCC(=O)O)NC(=O)[C@@H](NC(=O)[C@@H](N)CCSC)CSCc2cccc(c2)CSC[C@@H](C(=O)N[C@@H](CCCNC(=N)N)C(=O)N[C@H](C(=O)N[C@@H](CC(C)C)C(=O)N[C@@H](CCCNC(=N)N)C(=O)N[C@@H](Cc2ccc(O)cc2)C(=O)N[C@@H](CO)C(=O)N[C@@H](CCC(=O)O)C(N)=O)C(C)C)NC1=O` [Compound R2004, [mXylyl(2,6)]MCESICRVLRYSE-NH2] (H-MCESICRVLRYSE-NH2; linker 2-6 via mXylylene), for which the 50% inhibitory concentration (IC50) was found to be 0.501 nM.

On to `CC[C@H](C)[C@H](NC(=O)[C@H](CO)NC(=O)[C@H](CCC(=O)O)NC(=O)[C@H](CS)NC(=O)[C@@H](N)CCSC)C(=O)N[C@@H](CS)C(=O)N[C@@H](CCCNC(=N)N)C(=O)N[C@H](C(N)=O)C(C)C` [Compound R2007, MCESICRV-NH2] (H-MCESICRV-NH2; N-terminus assumed), for which the IC50 amounted to 2000 nM.

For `CCC[C@H](N)C(=O)N[C@H]1CSCc2cccc(c2)CSC[C@@H](C(=O)N[C@@H](CCCNC(=N)N)C(=O)N[C@H](C(N)=O)C(C)(C)C)NC(=O)[C@H](c2ccccc2)NC(=O)[C@H](CO)NC(=O)[C@H](CCC(=O)O)NC1=O` [Compound R2013, [mXylyl(2,6)]Nvl-CES-Phg-CR-Tbg-NH2] (H-[Nva]CES[Phg]CR[Tle]-NH2; linker 2-6 via mXylylene), the concentration for half-maximal inhibition (IC50) came to 6.8 nM.

On to `CC[C@H](C)[C@@H]1NC(=O)[C@H](CO)NC(=O)[C@H](Cc2nn[nH]n2)NC(=O)[C@@H](NC(=O)[C@@H](N)CCSC)CSCc2cccc(c2)CSC[C@@H](C(=O)N[C@@H](CCCNC(=N)N)C(=O)N[C@H](C(N)=O)C(C)C)NC1=O` [Compound R2020, [mXylyl(2,6)]MC-Asp(T)-SICRV-NH2] (H-MC[Ala(1H-tetrazol-5-yl)]SICRV-NH2; linker 2-6 via mXylylene), for which the IC50 came to 13 nM.

For the compound `CCC[C@H](N)C(=O)N[C@H]1CSCc2cccc(c2)CSC[C@@H](C(=O)N[C@@H](Cc2ccc(CN)cc2)C(=O)N[C@H](C(N)=O)C(C)C)NC(=O)[C@H]([C@@H](C)CC)NC(=O)[C@H](CO)NC(=O)[C@H](CCC(=O)O)NC1=O` [Compound R2021, [mXylyl(2,6)]Nvl-CESIC-Phe(4-CH2NH2)-V-NH2] (H-[Nva]CESIC[Phe(4-CH2NH2)]V-NH2; linker 2-6 via mXylylene), the IC50 was found to be 2000 nM.

For the compound `CC[C@H](C)[C@H]1C(=O)N[C@H](C(=O)N[C@@H](CCCNC(=N)N)C(=O)N[C@H](C(N)=O)C(C)C)CSCc2cccc(c2)CSC[C@H](NC(=O)[C@@H](N)CCSC)C(=O)N[C@@H](CCC(=O)O)C(=O)N[C@@H](CO)C(=O)N1C` [Compound R2026, [mXylyl(2,6)]MCES-nMeI-CRV-NH2] (H-MCES[NMeI]CRV-NH2; linker 2-6 via mXylylene), the IC50 was 26 nM.

With `CCC[C@H](N)C(=O)N[C@@H]1C(=O)N[C@@H](CCC(=O)O)C(=O)N[C@@H](CO)C(=O)N[C@@H]([C@@H](C)CC)C(=O)N[C@H](C(=O)N[C@@H](CCCNC(=N)N)C(=O)N[C@H](C(N)=O)C(C)C)CSCc2cccc(c2)CSC1(C)C` [Compound R2031, [mXylyl(2,6)]Nvl-Pen-ESICRV-NH2] (H-[Nva][Pen]ESICRV-NH2; linker 2-6 via mXylylene), the 50% inhibitory concentration (IC50) was 1460 nM.
